Literature values in patent US20150098993A1, “COMPOSITIONS, PROCESS OF PREPARATION OF SAID COMPOSITIONS AND METHOD OF TREATING INFLAMMATORY DISEASES” (priority 2011, published 2015).

What was measured:
[1] = molecular target: T1, AT1 receptor (Homo sapiens, UniProt P30556); conditions: AT1 vs AT2 receptor
T1 sequence (P30556 1-359): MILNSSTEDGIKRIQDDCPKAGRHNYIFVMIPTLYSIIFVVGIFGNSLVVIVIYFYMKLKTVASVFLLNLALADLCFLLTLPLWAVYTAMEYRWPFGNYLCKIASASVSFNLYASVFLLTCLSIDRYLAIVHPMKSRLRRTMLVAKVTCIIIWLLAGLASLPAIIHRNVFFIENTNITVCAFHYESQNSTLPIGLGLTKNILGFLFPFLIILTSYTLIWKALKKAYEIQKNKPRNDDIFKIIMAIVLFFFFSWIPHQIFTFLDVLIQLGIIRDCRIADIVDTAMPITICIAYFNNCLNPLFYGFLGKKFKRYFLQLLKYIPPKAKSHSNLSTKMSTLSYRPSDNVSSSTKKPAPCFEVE

[2] = not given; remark: listed apart in the source
[3] = not given; remark: listed apart in the source
[4] = in vivo
[5] = system: mice; conditions: in mice
[6] = system: male BALB/c mice; conditions: apremilast 5 and 25 mg/kg, dexamethasone 1 mg/kg; daily, oral; McCann
[7] = system: DBA/1 mice; conditions: DBA/1 mice immunized with bCII/CFA; Dalbeth

Structure (SMILES): CCCc1nc(C(C)(C)O)c(C(=O)OCc2oc(=O)oc2C)n1Cc1ccc(-c2ccccc2-c2nnn[nH]2)cc1 [(5-methyl-2-oxo-2H-1,3-dioxol-4-yl)methyl 4-(2-hydroxypropan-2-yl)-2-propyl-1-({4-[2-(2H-1,2,3,4-tetrazol-5-yl)phenyl]phenyl}methyl)-1H-imidazole-5-carboxylate]
- protein binding: 99%
- greater affinity for the AT1 receptor than for the AT2 receptor [1]: > 12,500 fold
- T½ ([2]; in vivo): 13 h
- half-life ([2]; in vivo): about 13 hours
- penetration of red blood cells ([2]; in vivo): does not penetrate red blood cells
- solubility in methanol ([3]; methanol): sparingly soluble
- solubility in water ([3]; water): practically insoluble
- side effects of therapy [4]: dehydration (dry mouth, excessive thirst, muscle pain or cramps, nausea and vomiting, weakness), dizziness, low blood pressure, and slow or irregular heartbeat
- maximum tolerated dose [5]: 25 mg/kg

Structure (SMILES): CCOc1cc([C@@H](CS(C)(=O)=O)N2C(=O)c3cccc(NC(C)=O)c3C2=O)ccc1OC [Apremilast, (S)-N-{2-[1-(3-Ethoxy-4-methoxyphenyl)-2-methanesulfonylethyl]-1,3-dioxo-2,3-dihydro-1H-isoindol-4-yl}acetamide]
- arthritis severity, as measured by clinical score [6]: significantly suppressed arthritis severity

Structure (SMILES): O=C(Nc1c(Cl)cncc1Cl)c1ccc(OC(F)F)c(OCC2CC2)c1 [CW304, 3-(cyclopropylmethoxy)-N-(3,5-dichloropyridin-4-yl)-4-(difluoromethoxy)benzamide]
- Cmax ([2]; in vivo): 7040 ng/mL
- T½ ([2]; in vivo): 12 to 14 h
- absolute bioavailability ([2]; in vivo): 79%
- solubility in acetone ([3]; acetone): freely soluble
- solubility in ethanol ([3]; ethanol): sparingly soluble
- side effects of therapy [4]: gastrointestinal (GI) events including nausea, diarrhea, and weight loss
- maximum tolerated dose [5]: 2 mg/kg

Structure (SMILES): Cc1ccc(NC(=O)c2ccc(CN3CCN(C)CC3)cc2)cc1Nc1nccc(-c2cccnc2)n1 [Imatinib, N-(4-methyl-3-{[4-(pyridin-3-yl)pyrmidin-2-yl]amino}phenyl)-4-[(4-methylpiperazin-1-yl)methyl]benzamide]
- Tmax ([2]; in vivo): 1.2 h
- maximum levels achieved after dosing (time) ([2]; in vivo): 2 to 4 h

Structure (SMILES): CCCc1nc(C(C)(C)O)c(C(=O)OCc2oc(=O)oc2C)n1Cc1ccc(-c2ccccc2-c2nnn[nH]2)cc1 [Olmesartan medoxomil]
- absolute bioavailability ([2]; in vivo): about 26%

Structure (SMILES): CCOC(=O)[C@H](CCc1ccccc1)N[C@@H](C)C(=O)N1Cc2ccccc2C[C@H]1C(=O)O [Quinapril, (3S)-2-[(2S)-2-{[(2S)-1-ethoxy-1-oxo-4-phenylbutan-2-yl]amino}propanoyl]-1,2,3,4-tetrahydroisoquinoline-3-carboxylic acid]
- protein binding: about 97%
- time of peak plasma concentration ([2]; following oral administration): within one hour
- T½ ([2]; in vivo): 13 h
- extent of absorption ([2]; in vivo): at least 60%
- half-life ([2]; in vivo): 2 h
- half-life, prolonged terminal phase ([2]; terminal phase): 25 h
- severity of collagen-induced arthritis [7]: reduced the severity
- solubility in aqueous solvents ([3]; aqueous solvents): freely soluble
- maximum tolerated dose [5]: 25 mg/kg
